# Experimental data from patent US20170290774A1, “NEUROKININ-1 RECEPTOR ANTAGONIST COMPOSITION FOR TREATMENT OF DISEASES AND CONDITIONS OF THE RESPIRATORY TRACT” (PLUS VITECH, S.L., priority 2014, published 2017).
# Read-outs that look alike come from different tables or passages of the source.
# Assays:
# MMP-7 = test: Immunohistochemistry of MMP-7 in respiratory tract tissue of sodium hypochlorite aerosol-treated rabbits; format: in vivo, New Zealand albino rabbits
# Text: It is known that the factors TGF-α, TGF-β 1, TGF-β 2, TGF-β 3, SPARC, MMP-3; MMP-7, MMP-9, MMP-11, MMP-13 and MMP-14, TGF-β, NF-kB, EGF, MMP-9, VEGF and TNF-α which are produced by lung cells (pneumocytes, fibroblasts and vascular endothelial cells) and inflammatory cells (macrophages, lymphocytes and polymorphonuclear leukocytes) are involved in the pathophysiology and development of said respiratory tract diseases. […] Herein, 27 New Zealand albino rabbits (New Zealand White Rabbit) with an initial average weight about 3 kg were used in this example. All subjects were administered an aerosol of a solution consisting of a mixture of water and sodium hypochlorite (35 g sodium hypochlorite per liter of water) at a rate of 5 mL of said solution by inhalation three times a day for 7 days (days 1 to 7 of experimentation). Subsequently, from days 3 to 7, a group of 3 rabbits (Group 1) was administered an oral dose of 10 mg/kg body weight per day, another group of 3 rabbits (Group 2) was administered an oral dose of 40 mg/kg body weight per day, a third group (Group 3) was administered an oral dose of 80 mg/kg body weight per day and a fourth group (Group 4) was administered an oral dose of 100 mg/kg body weight per day. […] This mixture was administered as an aerosol by inhalation, also from days 3 to 7, to a group of 3 rabbits (group 5) at a dose of 0.05 mg/kg body weight per day, to another group of three rabbits (Group 6) at a dose of 0.1 mg/kg body weight per day, to another group of three rabbits (Group 7) at a dose of 0.2 mg/kg body weight per day and to another group of three rabbits (Group 8) at a dose of 0.4 mg/kg body weight per day. A placebo consisting only of olive oil was administered from days 3 to 7 to a control group of 3 rabbits (placebo group). In parallel, 3 rabbits were kept under identical conditions but were not administered any treatment nor the aforementioned sodium hypochlorite solution (control group). […] On day 7 of the experiment all animals were euthanized and necropsied. […] Samples were taken at the peripheral level of the lung parenchyma, just below the pleural surface. Tissue samples were also taken from the nasal cavity, pharynx, larynx and bronchi. Immunohistochemistry studies were performed for all samples to evaluate the levels of the markers TGF-α, TGF-β 1, TGF-β 2, TGF-β 3 SPARC, MMP-3; MMP-7, MMP-9, MMP-11, MMP-14, TGF-β, TNF-α and VEGF. In said immunohistochemistry studies, a sample of each sample was dehydrated by treatment with increasing concentrations of ethanol and finally xylene. Subsequently said dried samples were embedded in paraffin, thus creating a block. Said paraffin blocks were cut on a microtome to a thickness of 5 μm, and the resulting sections (slices) were placed on slides suitable for conducting immunohistochemistry techniques. Subsequently, the sections were deparaffinised by immersion in xylene and then rehydrated through immersion in a series of solutions containing decreasing concentrations of ethanol and, finally, water. […] The samples were then allowed to cool to room temperature over 10 minutes. Endogenous peroxidase activity was blocked by treatment with 3% hydrogen peroxide over 30 min at room temperature. […] In order to verify the expression of NK1 receptors, the cell samples were incubated in the presence of anti-NK1 antibodies ([…], Sigma-Aldrich) diluted 1:1000 at 4° C. overnight. After this time they were washed in 0.05M Tris buffer at room temperature. Subsequently, Envision System-HRP (Dako) reagents were added for 30 min at room temperature. Once this time had expired, the samples were again washed with 0.05 M Tris buffer, and immunoreactivity was visualized by light microscopy with a chromogenic solution with 3,3'-diaminobenzidine (DAB+; Dako, USA). In order to differentiate the cell nuclei, these were lightly stained with haematoxylin. Samples that were not incubated with the primary antibody, but wherein this was replaced by a non-immune serum were used as negative controls. […]
# [1] = cited from earlier work
# [2] = single oral dose of 125 mg of Emend
# [3] = terminal nephropathy with hemodialysis, single dose of 240 mg of Emend
smiles,measurement,setting,value
"C[C@@H](OC1OCCN(Cc2nc(=O)[nH][nH]2)C1c1ccc(F)cc1)c1cc(C(F)(F)F)cc(C(F)(F)F)c1 (stereo in doubt) [Aprepitant, 5-([(2R,3S)-2-((R)-1-[3,5-bis(trifluoromethyl)phenyl]ethoxy)-3-(4-fluorophenyl)morpholino]methyl)-1H-1,2,4-triazol-3(2H)-one]",Percent increase in MMP-7 with respect to the control group,"MMP-7; bronchial tissue, Group 1, oral 10 mg/kg per day",504.23%
same,Percent increase in MMP-7 with respect to the control group,"MMP-7; bronchial tissue, Group 2, oral 40 mg/kg per day",406.34%
same,Percent increase in MMP-7 with respect to the control group,"MMP-7; bronchial tissue, Group 3, oral 80 mg/kg per day",398.45%
same,Percent increase in MMP-7 with respect to the control group,"MMP-7; bronchial tissue, Group 4, oral 100 mg/kg per day",289.56%
same,% Med G5/C: percent increase in marker MMP-7 with respect to the control group,"MMP-7; bronchial tissue, Group 5",549.34%
same,% Med G6/C: percent increase in marker MMP-7 with respect to the control group,"MMP-7; bronchial tissue, Group 6",467.45%
same,% Med G7/C: percent increase in marker MMP-7 with respect to the control group,"MMP-7; bronchial tissue, Group 7",356.47%
same,% Med G8/C: percent increase in marker MMP-7 with respect to the control group,"MMP-7; bronchial tissue, Group 8",241.56%
same,Percent increase in MMP-7 with respect to the control group,"MMP-7; laryngeal tissue, Group 1, oral 10 mg/kg per day","1,012.67%"
same,Percent increase in MMP-7 with respect to the control group,"MMP-7; laryngeal tissue, Group 2, oral 40 mg/kg per day",899.78%
same,Percent increase in MMP-7 with respect to the control group,"MMP-7; laryngeal tissue, Group 3, oral 80 mg/kg per day",788.56%
same,Percent increase in MMP-7 with respect to the control group,"MMP-7; laryngeal tissue, Group 4, oral 100 mg/kg per day",576.89%
same,Percent increase in MMP-7 with respect to the control group,"MMP-7; laryngeal tissue, Group 5, inhalation 0.05 mg/kg per day","1,205.45%"
same,Percent increase in MMP-7 with respect to the control group,"MMP-7; laryngeal tissue, Group 6, inhalation 0.1 mg/kg per day",809.54%
same,Percent increase in MMP-7 with respect to the control group,"MMP-7; laryngeal tissue, Group 7, inhalation 0.2 mg/kg per day",372.23%
same,Percent increase in MMP-7 with respect to the control group,"MMP-7; laryngeal tissue, Group 8, inhalation 0.4 mg/kg per day",112.25%
same,Percent increase in MMP-7 with respect to the control group,"MMP-7; lung tissue, Group 1, oral 10 mg/kg per day",345.90%
same,Percent increase in MMP-7 with respect to the control group,"MMP-7; lung tissue, Group 2, oral 40 mg/kg per day",325.50%
same,Percent increase in MMP-7 with respect to the control group,"MMP-7; lung tissue, Group 3, oral 80 mg/kg per day",220.38%
same,Percent increase in MMP-7 with respect to the control group,"MMP-7; lung tissue, Group 4, oral 100 mg/kg per day",184.56%
same,Percent increase in MMP-7 with respect to the control group,"MMP-7; lung tissue, Group 5, inhalation 0.05 mg/kg per day",321.48%
same,Percent increase in MMP-7 with respect to the control group,"MMP-7; lung tissue, Group 6, inhalation 0.1 mg/kg per day",232.63%
same,Percent increase in MMP-7 with respect to the control group,"MMP-7; lung tissue, Group 7, inhalation 0.2 mg/kg per day",142.07%
same,Percent increase in MMP-7 with respect to the control group,"MMP-7; lung tissue, Group 8, inhalation 0.4 mg/kg per day",109.05%
same,Percent increase in MMP-7 with respect to the control group,"MMP-7; nasal cavity tissue, Group 1, oral 10 mg/kg per day","2,267.10%"
same,Percent increase in MMP-7 with respect to the control group,"MMP-7; nasal cavity tissue, Group 2, oral 40 mg/kg per day","1,308.16%"
same,Percent increase in MMP-7 with respect to the control group,"MMP-7; nasal cavity tissue, Group 3, oral 80 mg/kg per day","1,119.62%"
same,Percent increase in MMP-7 with respect to the control group,"MMP-7; nasal cavity tissue, Group 4, oral 100 mg/kg per day",942.01%
same,Percent increase in MMP-7 with respect to the control group,"MMP-7; nasal cavity tissue, Group 5, inhalation 0.05 mg/kg per day","1,835.98%"
same,Percent increase in MMP-7 with respect to the control group,"MMP-7; nasal cavity tissue, Group 6, inhalation 0.1 mg/kg per day","1,147.87%"
same,Percent increase in MMP-7 with respect to the control group,"MMP-7; nasal cavity tissue, Group 7, inhalation 0.2 mg/kg per day",444.94%
same,Percent increase in MMP-7 with respect to the control group,"MMP-7; nasal cavity tissue, Group 8, inhalation 0.4 mg/kg per day",136.90%
same,Percent increase in MMP-7 with respect to the control group,"MMP-7; pharyngeal tissue, Group 1, oral 10 mg/kg per day","2,004.34%"
same,Percent increase in MMP-7 with respect to the control group,"MMP-7; pharyngeal tissue, Group 2, oral 40 mg/kg per day","1,591.34%"
same,Percent increase in MMP-7 with respect to the control group,"MMP-7; pharyngeal tissue, Group 3, oral 80 mg/kg per day","1,456.45%"
same,Percent increase in MMP-7 with respect to the control group,"MMP-7; pharyngeal tissue, Group 4, oral 100 mg/kg per day",967.12%
same,Percent increase in MMP-7 with respect to the control group,"MMP-7; pharyngeal tissue, Group 5, inhalation 0.05 mg/kg per day","1,820.78%"
same,Percent increase in MMP-7 with respect to the control group,"MMP-7; pharyngeal tissue, Group 6, inhalation 0.1 mg/kg per day","1,109.45%"
same,Percent increase in MMP-7 with respect to the control group,"MMP-7; pharyngeal tissue, Group 7, inhalation 0.2 mg/kg per day",450.45%
same,Percent increase in MMP-7 with respect to the control group,"MMP-7; pharyngeal tissue, Group 8, inhalation 0.4 mg/kg per day",121.80%
same,effect of mild hepatic insufficiency on pharmacokinetics,[1]; Child-Pugh score of 5 to 6,does not affect to a clinically relevant degree
same,oral bioavailability,[1]; Emend capsule of 80 mg,67%
same,oral bioavailability,[1]; Emend capsule of 125 mg,59%
same,linearity of pharmacokinetics,[1]; clinical dose interval,non-linear pharmacokinetics
same,AUC0-24 h greater in elderly (≧65 years) than younger adults,"[1]; day 1, oral 125 mg Emend",21%
same,Cmax greater in elderly than younger adults,[1]; day 1,10%
same,AUC0-24 h greater in elderly (≧65 years) than younger adults,"[1]; day 5, 80 mg once a day",36%
same,Cmax greater in elderly than younger adults,[1]; day 5,24%
same,share of plasma radioactivity,"[1]; healthy young adults, over 72 hours after single 100 mg intravenous dose of [C14] prodrug",approximately 19%
same,increase in AUC0-∞ greater in proportion to the dose,"[1]; healthy young adults, single doses of 80 mg and 125 mg, postprandial",26%
same,metabolites identified in human plasma,[1]; human plasma,12
same,increase of AUC with food,[1]; oral capsule with standard breakfast of approximately 800 Kcal,up to 40%
same,Tmax,[1]; oral,approximately 4 hours
same,reduction of AUC0-∞ of total aprepitant with respect to healthy patients,"[1]; severe renal insufficiency (CrCl<30 ml/min), single dose of 240 mg of Emend",21%
same,reduction of Cmax with respect to healthy patients,"[1]; severe renal insufficiency, single dose of 240 mg of Emend",32%
same,Cmax greater in women than men,[1]; [2],16%
same,half-life greater in women than men,[1]; [2],25%
same,reduction of AUC0-∞ of total aprepitant,[1]; [3],42%
same,reduction of Cmax,[1]; [3],32%
